From ChEMBL document CHEMBL1158402, “Homology modeling of MCH1 receptor and validation by docking/scoring and protein-aligned CoMFA” (Eur J Med Chem, 2009)

Biological target: Melanin-concentrating hormone receptor 1 (Homo sapiens, UniProt Q99705)
Assay: Binding affinity to MCH1 receptor

Chain of Melanin-concentrating hormone receptor 1 (Q99705 whole entry): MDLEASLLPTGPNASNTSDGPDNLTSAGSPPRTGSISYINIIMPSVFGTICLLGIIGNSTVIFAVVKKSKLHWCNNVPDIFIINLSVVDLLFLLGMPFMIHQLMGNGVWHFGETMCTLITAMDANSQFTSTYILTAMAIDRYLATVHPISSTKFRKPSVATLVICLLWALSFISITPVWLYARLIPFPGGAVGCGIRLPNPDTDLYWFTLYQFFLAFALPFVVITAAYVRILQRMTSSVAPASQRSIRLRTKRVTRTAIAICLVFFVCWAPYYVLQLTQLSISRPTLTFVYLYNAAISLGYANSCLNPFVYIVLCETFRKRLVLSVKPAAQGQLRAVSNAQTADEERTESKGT

Row | Compound | Ki [µM]
1 | Cc1ccc(CN2CCC(=Cc3ccc(C(=O)N[C@H](C)c4ccc(Br)cc4)cc3)CC2)c2ccccc12 | 1.41
2 | C[C@@H](NC(=O)c1ccc(CC2CCN(Cc3ccc4c(c3)OCO4)CC2)cc1)c1ccccc1 | 3.47
3 | COc1cccc([C@@H](C)NC(=O)c2ccc(CC3CCN(Cc4ccc5c(c4)OCO5)CC3)cc2)c1 | 0.266
4 | C[C@@H](NC(=O)c1ccc(CC2CCN(Cc3ccc4c(c3)OCO4)CC2)cc1)c1ccc(Cl)cc1 | 0.108
5 | CC[C@@H](NC(=O)c1ccc(CC2CCN(Cc3ccc4c(c3)OC(F)(F)O4)CC2)cc1)c1ccc(I)cc1 | 0.795
6 | CC[C@@H](NC(=O)c1ccc(CC2CCN(Cc3ccc4cncnc4c3)CC2)cc1)c1ccc(I)cc1 | 0.03
7 | CC[C@@H](NC(=O)c1ccc(CC2CCN(Cc3ccc4cccnc4c3)CC2)cc1)c1ccc(I)cc1 | 0.005
8 | C[C@@H](NC(=O)c1ccc(C=C2CCN(Cc3ccco3)CC2)cc1)c1ccc(Br)cc1 | 15.6
9 | O=C(N[C@@H]1CCc2ccccc21)c1ccc(CC2CCN(Cc3ccc4c(c3)OCO4)CC2)cc1 | 4.68
10 | COc1ccccc1[C@@H](C)NC(=O)c1ccc(CC2CCN(Cc3ccc4c(c3)OCO4)CC2)cc1 | 2.06
11 | C[C@@H](NC(=O)c1ccc(CC2CCN(Cc3ccc4c(c3)OCO4)CC2)cc1)c1ccc(I)cc1 | 0.051
12 | Cc1ccc([C@@H](C)NC(=O)c2ccc(CC3CCN(Cc4ccc5c(c4)OCO5)CC3)cc2)cc1 | 1.08
13 | CC[C@@H](NC(=O)c1ccc(CC2CCN(Cc3ccc4ccccc4n3)CC2)cc1)c1ccc(I)cc1 | 0.312
14 | C[C@@H](NC(=O)c1ccc(C=C2CCN(Cc3ccccc3)CC2)cc1)c1ccc(Br)cc1 | 2.58
15 | C[C@@H](NC(=O)c1ccc(C=C2CCN(CC3CCCCC3)CC2)cc1)c1ccc(Br)cc1 | 11.8
16 | CC(NC(=O)c1ccc(CC2CCN(Cc3ccc4c(c3)OCO4)CC2)cc1)c1ccccc1 (stereo not drawn) | 4.13
17 | Cc1ccccc1CNC(=O)c1ccc(CC2CCN(Cc3ccc4c(c3)OCO4)CC2)cc1 | 9.33
18 | CCC[C@@H](NC(=O)c1ccc(CC2CCN(Cc3ccc4c(c3)OCO4)CC2)cc1)c1ccc(I)cc1 | 0.191
19 | CC[C@@H](NC(=O)c1ccc(CC2CCN(Cc3ccc4nccnc4c3)CC2)cc1)c1ccc(I)cc1 | 0.04
20 | C[C@@H](NC(=O)c1ccc(CN2CCN(Cc3ccc4c(c3)OCO4)CC2)cc1)c1ccc(Br)cc1 | 1.95
21 | CC1CN(Cc2ccc3c(c2)OCO3)CCN1Cc1ccc(C(=O)N[C@@H](C)c2ccc(Br)cc2)cc1 (stereo partly drawn) | 4.56
22 | C[C@@H](NC(=O)c1ccc(CC2CCN(Cc3ccc4c(c3)OCO4)CC2)cc1)C1CCCCC1 | 3.57
23 | C[C@@H](NC(=O)c1ccc(C=C2CCN(Cc3ccc(-c4ccccc4)cc3)CC2)cc1)c1ccc(Br)cc1 | 5.11
24 | CC(c1ccc(C(=O)N[C@@H](C)c2ccc(Br)cc2)cc1)N1CCN(Cc2ccc3c(c2)OCO3)CC1 (stereo partly drawn) | 2.33
25 | COc1ccc(CN2CCC(=Cc3ccc(C(=O)N[C@H](C)c4ccc(Br)cc4)cc3)CC2)cc1 | 0.149
26 | O=C(Cc1ccc2c(c1)CCO2)c1ccc(CC2CCN(Cc3ccc4c(c3)OCO4)CC2)cc1 | 0.133
27 | CC[C@@H](NC(=O)c1ccc(CC2CCN(Cc3ccc4c(c3)OCO4)CC2)cc1)c1ccc(I)cc1 | 0.02
28 | O=C(NCc1ccccc1)c1ccc(CC2CCN(Cc3ccc4c(c3)OCO4)CC2)cc1 | 5.64
